According to patent US9029346B1, “Irreversible inhibitors of DNA polymerase beta” (The Johns Hopkins University, priority 2013, dated 2015):

Experiments:
[1] = test system: mouse embryonic fibroblast cell lysates lyase activity; experiment: Lyase (dRPase) activity of mouse embryonic fibroblast lysates on 3′-32P-15; assay type: biochemical; details: for Rate of product formation: inhibitor + (18, 50 μM), 32 μg protein
[2] = test system: DU145 prostate cancer cells; assay type: cell-based; details: for DU145 cells surviving treatment: 40 μM, FIG. 13A
Method: DU 145 cells were obtained from the American Type Culture Collection (ATCC, HTB-81, Manassas, Va.) and maintained in RPMI 1640 culture medium (Sigma-Aldrich R8758, St. Louis, Mo.), supplemented with 10% fetal bovine serum (Sigma-Aldrich F6178, St. Louis, Mo.). Cultures were grown at 37° C. in a humidified atmosphere of 5% carbon dioxide without any antibiotics and subcultured when they reached confluence. For clonogenic survival analysis, the appropriate number of cells were grown in standard 6-well tissue culture dishes in the growth media (2 mL per well). After 2 days, the cells were treated with Pol β inhibitors (3a or 18) by addition of sterile stock solution in water directly to the growth media to the desired final concentrations. Cells were treated similarly with methyl methanesulfonate (MMS, Sigma-Aldrich, St. Louis, Mo.). For combined treatments, 18 was added to the cells first followed by MMS. The compounds remained present throughout the entire assay. Two weeks after the treatment, the cells were fixed and stained with 0.2% solution of crystal violet in 50% methanol. Colonies with ≧50 cells were then counted. All treatments were carried out in triplicate.
[…]. Consequently, DU145 cell survival was measured as a function of MMS concentration, without and with 18 at a concentration (20 μM) where the proinhibitor itself results in approximately 45% cell death. […] […].

[3] = Conversion of bisacetate proinhibitor to 3a in DU145 lysate (TLC analysis); assay type: in vitro ADME
[4] = test system: DU145 lysate lyase activity; experiment: Lyase activity of DU145 cell extracts (lysates) on 3′-32P-15
Method: The aliquots were kept on ice for 1 h before mixing with loading buffer (5 μL). The samples were analyzed by 20% denaturing PAGE and quantified using a phosphorimager.
Cells were harvested by mild trypsinzation. The cells were then washed three times with phosphate buffered saline. Cell pellets were suspended in 1× Passive Lysis Buffer (PBL, Promega Corporation, E1941, Madison, Wis.) at concentration of 1×10^7 cells per mL and frozen in aliquots at −80° C. Protein concentrations were determined by Bio-Rad protein assay dye (Bio-Rad, 500-0006, Hercules, Calif.) according to the manufacturer's protocol and using bovine serum albumin as a standard.

Pol β lyase activity = Pol β lyase activity (Homo sapiens, UniProt P06746); experiment: Pol β lyase (dRPase) activity on 3′-32P-15 by gel electrophoresis
Method: The ability of 1a to inhibit Pol β's dRPase activity was examined using 3′-^32P-15 in which the oligonucleotide containing dRP was labeled.
The DNA substrate was added to the reaction following preincubation of 1a with Pol β and subsequent 100-fold dilution. The lyase reaction was monitored by gel electrophoresis.

[5] = test system: Klenow fragment of DNA polymerase 1; experiment: Klenow exo- strand displacement synthesis fluorescence assay (selectivity); assay type: biochemical, E. coli; details: 10 μM, same conditions as Pol β, FIG. 9
Method: […]. The volume of the solution in each well is approximately 400 μL. Pol β (final concentration, 10 nM) or Klenow exo-(final concentration 5 nM) is added and the measurement of the fluorescence is started immediately.
More than one dozen polymerases exist in a human cell. Because there is not access to each of these, the Klenow fragment of DNA polymerase 1 from E. coli was used as a primitive test of the inhibitor's (3a) selectivity. […]. However, the efficacy of the 1,4-dicarbonyl containing inhibitor (1a) was compromised by thiols, presumably due to nucleophilic addition (FIG. 10). […]

Pol β = Pol β (Homo sapiens, UniProt P06746); assay type: biochemical
Method: It is worth noting that the well should be full to obtain accurate fluorescence data (approximately 380 μL). […] To determine the polymerase activity in the presence of each inhibitor, a solution of 13 (3.8 μL, 5 μM) and dTTP (3.8 μL, 10 mM) were also added (to make final [13]=50 nM and 100 μM of dTTP). The plates were immediately placed in the microtiter plate reader and the measurements were recorded.
It is worth noting that the well should be full in order to get accurate fluorescence data (approximately 380 μL). The solutions of inhibitors (40×) in acetonitrile obtained after pentenyl deprotection (10 μL) were transferred to the wells containing Pol β and incubated for 20 min. To determine the polymerase activity of enzyme in the presence of each inhibitor, solutions of ternary complex 13 (3.8 μL, 5 μM) and dTTP (3.8 μL, 10 mM) were also added (to make final 50 nM of 13 and 100 μM of dTTP). The plates were placed immediately in the microtiter plate reader Cary Eclipse Varian and the measurements started.
The inhibitor solution (40×, 10 μL) was added to the first well and preincubated for 20 min. At this time, the same portion of inhibitor was added to the second well. […] Once the inhibitor was added to the fifth well, solutions of ternary complex 13 (3.8 pit, 5 μM) and dTTP (3.8 μL, 10 mM) were also added and the fluorescence measurement was started immediately.

COc1cc(Cl)c(/C=N/OC2C[C@H](n3cc(C)c(=O)[nH]c3=O)O[C@@H]2COP(=O)(O)OCC2CC(OC(C)=O)OC2OC(C)=O)c(Cl)c1O (stereo partly shown) [compound 18]
Rate of product formation ([1]; Pol β - lysate): 5.5 ± 1.5 ×10^−1 % · min^−1
Rate of product formation ([1]; Pol β wt lysate): 9.2 ± 2.4 ×10^−1 % · min^−1
reduction of lyase activity ([1]; Pol β- cell lysates, 18 at 50 μM): less than 30%
Rate of product formation ([1]; Pol β/λ - lysate): 11.0 ± 4.0 ×10^−1 % · min^−1
Rate of product formation ([1]; Pol λ - lysate): 9.1 ± 2.3 ×10^−1 % · min^−1
Rate of product formation ([1]; Pol λ wt lysate, aliquots at 2, 5, 10 min): 12.4 ± 3.2 ×10^−1 % · min^−1
effect on lyase activity versus wild type cells ([1]; cells lacking Pol λ (Pol λ-), p=0.05): statistically indistinguishable
effect on lyase activity versus Pol β- cells ([1]; double knock-out (Pol β-/Pol λ-) cells): within experimental error
reduction of the rate of the lyase reaction ([1]; lysates from wild type cells, 18 at 50 μM): ~2 fold
MMS concentration at and above which clear potentiation of cytotoxicity is seen [2]: ≥ 0.2 mM
cell death ([2]; 20 μM, proinhibitor alone): approximately 45%
DU145 cells surviving treatment [2]: approximately 0.01%
time for conversion of bisacetate to 3a [3]: ≤ 5 min
inhibition of DU145 lysate lyase activity ([4]; 150 μM): Almost complete inhibition
preincubation time by which inactivation was complete ([4]; 18 at 50 μM, preincubation varied 5-60 min): ≤ 15 min
lyase activity inhibition compared with 3a ([4]; 1 h preincubation, FIG. 11): significantly greater
effect on Pol β lyase activity (Pol β lyase activity): had no effect

COc1cc(Cl)c(/C=N/OC2C[C@H](n3cc(C)c(=O)[nH]c3=O)O[C@@H]2COP(=O)(OC)OCCC=O)c(Cl)c1O (stereo partly shown) [compound 16]
effect on Pol β lyase activity (Pol β lyase activity): had no effect

COc1cc(Cl)c(/C=N/OC2C[C@H](n3cc(C)c(=O)[nH]c3=O)O[C@@H]2COP(=O)(O)OCC2CC(O)OC2O)c(Cl)c1O (stereo partly shown) [3a]
effect on Klenow fragment's activity [5]: no effect
DU145 cells surviving treatment [2]: 12%
lyase activity remaining ([4]; 150 μM): more than 30%

COc1cc(Cl)c(/C=N/OC2C[C@H](n3cc(C)c(=O)[nH]c3=O)O[C@@H]2COP(=O)(OC)OCC2CC(O)OC2O)c(Cl)c1O (stereo partly shown) [2a]
effect on Pol β activity in strand displacement assay (Pol β): comparable inhibition activity as 1a
